Our source for the IC50 values is ChEMBL document CHEMBL4138247, “Synthesis of new triterpenic monomers and dimers as potential antiproliferative agents and their molecular docking studies” (Eur J Med Chem, 2018).

Assay type in all cases: functional, cell-based
For experiment [1], the system named is A-375. Kind of experiment: Antiproliferative activity against human A375 cells after 96 hrs by SRB assay. The note with it: A-375, 96 h. (In SRB staining, fixed cells bind dye roughly in proportion to their protein.)
Experiment [2] relates to HT-29. Kind of experiment: Antiproliferative activity against human HT-29 cells after 96 hrs by SRB assay. The note with it: HT-29, 96 h.
The test system of experiment [3] is A2780. Kind of experiment: Antiproliferative activity against human A2780 cells after 96 hrs by SRB assay. The settings on record: A2780, 96 h.
Experiment [4] has as its system FaDu. As to the kind of experiment: Antiproliferative activity against human FADU cells after 96 hrs by SRB assay.

Structures are written as SMILES. pIC50: −log10 of the molar value. Some results are limits rather than exact numbers.

For the molecule `C/C(=C\CC/C(C)=C/CC[C@@H]1[C@@]2(C)CCC(=O)C(C)(C)[C@@H]2CC[C@@]1(C)O)CC/C=C(\C)C(=O)OCCCOC(=O)/C(C)=C/CC/C(C)=C/CC/C(C)=C/CC[C@@H]1[C@@]2(C)CC[C@@H](O)C(C)(C)[C@@H]2CC[C@@]1(C)O`, the pIC50 is 4.95 in experiment [1], 5.17 in experiment [2], 4.83 in experiment [3] and 4.60 in experiment [4].
Taken in the same sequence, the figures for `C/C(=C\CC/C(C)=C/CC[C@@H]1[C@@]2(C)CCC(=O)C(C)(C)[C@@H]2CC[C@@]1(C)O)CC/C=C(\C)C(=O)OCCOC(=O)[C@@]1(C)[C@H](O)CC[C@@]2(C)[C@H]1CC[C@]1(C)[C@@H]2C(=O)C=C2[C@@H]3[C@@H](C)[C@H](C)CC[C@]3(C)CC[C@]21C` were < 4.52, < 4.52, < 4.52 and < 4.52.
Taken in the same sequence, the figures for `C/C(=C\CC/C(C)=C/CC[C@@H]1[C@@]2(C)CCC(=O)C(C)(C)[C@@H]2CC[C@@]1(C)O)CC/C=C(\C)C(=O)OCCCBr` were 4.93, 5.09, 4.74 and < 4.52.
Turning to `C/C(=C\CC/C(C)=C/CC[C@@H]1[C@@]2(C)CCC(=O)C(C)(C)[C@@H]2CC[C@@]1(C)O)CC/C=C(\C)C(=O)OCCCCOC(=O)/C(C)=C/CC/C(C)=C/CC/C(C)=C/CC[C@@H]1[C@@]2(C)CCC(=O)C(C)(C)[C@@H]2CC[C@@]1(C)O`, the pIC50 in experiment [1] was 4.91; in experiment [2], 5.06; in experiment [3], 4.62; in experiment [4] it was < 4.52.
On the same counts, the results for `C/C(=C\CC/C(C)=C/CC[C@@H]1[C@@]2(C)CCC(=O)C(C)(C)[C@@H]2CC[C@@]1(C)O)CC/C=C(\C)C(=O)OCCCCOC(=O)[C@@]1(C)[C@H](O)CC[C@@]2(C)[C@H]1CC[C@]1(C)[C@@H]2C(=O)C=C2[C@@H]3[C@@H](C)[C@H](C)CC[C@]3(C)CC[C@]21C` are < 4.52, < 4.52, < 4.52 and < 4.52.
On the same counts, the results for `C/C(=C\CC/C(C)=C/CC[C@@H]1[C@@]2(C)CCC(=O)C(C)(C)[C@@H]2CC[C@@]1(C)O)CC/C=C(\C)C(=O)OCCCCBr` are 4.84, 4.84, 4.67 and < 4.52.
Consider `C/C(=C\CC/C(C)=C/CC[C@@H]1[C@@]2(C)CCC(=O)C(C)(C)[C@@H]2CC[C@@]1(C)O)CC/C=C(\C)C(=O)OCCCCOC(=O)/C(C)=C/CC/C(C)=C/CC/C(C)=C/CC[C@@H]1[C@@]2(C)CC[C@H](O)C(C)(C)[C@@H]2CC[C@@]1(C)O`, for which the pIC50 in experiment [1] is 4.97; in experiment [2] it was 5.09; in experiment [3], 4.79; in experiment [4], 4.55.
Regarding `C=C(C)[C@@H]1CC[C@]2(C)CC[C@]3(C)[C@H](CC[C@@H]4[C@@]5(C)CC[C@@H](O)[C@](C)(C(=O)OCCCBr)[C@@H]5CC[C@]43C)[C@@H]12`, the pIC50 in experiment [1] was 4.78; in experiment [2], 4.61; in experiment [3], 4.57; in experiment [4], 4.57.
Turning to `C=C(C)[C@@H]1CC[C@]2(C)CC[C@]3(C)[C@H](CC[C@@H]4[C@@]5(C)CC[C@@H](O)[C@](C)(C(=O)OCCCCBr)[C@@H]5CC[C@]43C)[C@@H]12`, the pIC50 is 4.74 in experiment [1], < 4.52 in experiment [2], < 4.52 in experiment [3] and < 4.52 in experiment [4].
`C/C(=C\CC/C(C)=C/CC[C@@H]1[C@@]2(C)CCC(=O)C(C)(C)[C@@H]2CC[C@@]1(C)O)CC/C=C(\C)C(=O)OCCBr`: the pIC50 in experiment [1], in experiment [2], in experiment [3] and in experiment [4] was < 4.52 each time.
As for `C/C(=C\CC/C(C)=C/CC[C@@H]1[C@@]2(C)CCC(=O)C(C)(C)[C@@H]2CC[C@@]1(C)O)CC/C=C(\C)C(=O)OCCOC(=O)/C(C)=C/CC/C(C)=C/CC/C(C)=C/CC[C@@H]1[C@@]2(C)CC[C@@H](O)C(C)(C)[C@@H]2CC[C@@]1(C)O`, the pIC50 was 4.81 in experiment [1], 5.00 in experiment [2], 4.68 in experiment [3] and < 4.52 in experiment [4].
Turning to `C/C(=C\CC/C(C)=C/CC[C@@H]1[C@@]2(C)CCC(=O)C(C)(C)[C@@H]2CC[C@@]1(C)O)CC/C=C(\C)C(=O)OCCCOC(=O)/C(C)=C/CC/C(C)=C/CC/C(C)=C/CC[C@@H]1[C@@]2(C)CCC(=O)C(C)(C)[C@@H]2CC[C@@]1(C)O`, the pIC50 in experiment [1] is 4.98; in experiment [2], 5.27; in experiment [3], 4.80; in experiment [4], < 4.52.
Turning to `C/C(=C\CC/C(C)=C/CC[C@@H]1[C@@]2(C)CCC(=O)C(C)(C)[C@@H]2CC[C@@]1(C)O)CC/C=C(\C)C(=O)OCCOC(=O)/C(C)=C/CC/C(C)=C/CC/C(C)=C/CC[C@@H]1[C@@]2(C)CCC(=O)C(C)(C)[C@@H]2CC[C@@]1(C)O`, the pIC50 is 4.61 in experiment [1], 4.85 in experiment [2], < 4.52 in experiment [3] and < 4.52 in experiment [4].
`C/C(=C\CC/C(C)=C/CC[C@@H]1[C@@]2(C)CCC(=O)C(C)(C)[C@@H]2CC[C@@]1(C)O)CC/C=C(\C)C(=O)OCCCOC(=O)[C@@]1(C)[C@H](O)CC[C@@]2(C)[C@H]1CC[C@]1(C)[C@@H]2C(=O)C=C2[C@@H]3[C@@H](C)[C@H](C)CC[C@]3(C)CC[C@]21C`: the pIC50 in experiment [1], in experiment [2], in experiment [3] and in experiment [4] was < 4.52 each time.
Take `C=C(C)[C@@H]1CC[C@]2(C(=O)OCCCCOC(=O)/C(C)=C/CC/C(C)=C/CC/C(C)=C/CC[C@@H]3[C@@]4(C)CCC(=O)C(C)(C)[C@@H]4CC[C@@]3(C)O)CC[C@]3(C)[C@H](CC[C@@H]4[C@@]5(C)CC[C@H](O)C(C)(C)[C@@H]5CC[C@]43C)[C@@H]12`: the pIC50 in experiment [1], in experiment [2], in experiment [3] and in experiment [4] was < 4.52 each time.
For `C=C(C)[C@@H]1CC[C@]2(C)CC[C@]3(C)[C@H](CC[C@@H]4[C@@]5(C)CC[C@@H](O)[C@](C)(C(=O)OCCBr)[C@@H]5CC[C@]43C)[C@@H]12`, the pIC50 was 4.76 in experiment [1], 4.64 in experiment [2], 4.54 in experiment [3] and 4.58 in experiment [4].

As a reminder, the pIC50 is −log10 of the IC50, conventionally taken in molar units. Read a high pIC50 as a low IC50.
